In patent publication US8722580B2, “Agent for inhibiting cytokinin signaling” (Sumitomo Chemical Company, Limited, priority 2006, dated 2014):

Tests used:
[1] = biological target: T1, cytokinin receptor CRE1 (Arabidopsis thaliana, UniProt Q9C5U0, S567G/T1018A); assay: Inhibition of intracellular signaling from plant-derived cytokinin receptor, growth of transformed yeast cell TM182-CRE1; assay type: cell-based; conditions: trans-zeatin 0.6 ppm, chemical substance 2 ppm; for Relative growth rate (%) in test section of test substance to control section, Transformed cell TM182-CRE1: 30° C., 24 hours, turbidity OD 600; for Activity (%) of test substance for inhibiting intracellular signaling from plant-derived cytokinin receptor of cell: = 100 − relative growth rate of TM182-CRE1
T1 construct: expressed in transfected cells; host or cells: Saccharomyces cerevisiae TM182 (sln1Δ) transformed with p415CYC-CRE1
T1 sequence (Q9C5U0 24-1080 S567G/T1018A): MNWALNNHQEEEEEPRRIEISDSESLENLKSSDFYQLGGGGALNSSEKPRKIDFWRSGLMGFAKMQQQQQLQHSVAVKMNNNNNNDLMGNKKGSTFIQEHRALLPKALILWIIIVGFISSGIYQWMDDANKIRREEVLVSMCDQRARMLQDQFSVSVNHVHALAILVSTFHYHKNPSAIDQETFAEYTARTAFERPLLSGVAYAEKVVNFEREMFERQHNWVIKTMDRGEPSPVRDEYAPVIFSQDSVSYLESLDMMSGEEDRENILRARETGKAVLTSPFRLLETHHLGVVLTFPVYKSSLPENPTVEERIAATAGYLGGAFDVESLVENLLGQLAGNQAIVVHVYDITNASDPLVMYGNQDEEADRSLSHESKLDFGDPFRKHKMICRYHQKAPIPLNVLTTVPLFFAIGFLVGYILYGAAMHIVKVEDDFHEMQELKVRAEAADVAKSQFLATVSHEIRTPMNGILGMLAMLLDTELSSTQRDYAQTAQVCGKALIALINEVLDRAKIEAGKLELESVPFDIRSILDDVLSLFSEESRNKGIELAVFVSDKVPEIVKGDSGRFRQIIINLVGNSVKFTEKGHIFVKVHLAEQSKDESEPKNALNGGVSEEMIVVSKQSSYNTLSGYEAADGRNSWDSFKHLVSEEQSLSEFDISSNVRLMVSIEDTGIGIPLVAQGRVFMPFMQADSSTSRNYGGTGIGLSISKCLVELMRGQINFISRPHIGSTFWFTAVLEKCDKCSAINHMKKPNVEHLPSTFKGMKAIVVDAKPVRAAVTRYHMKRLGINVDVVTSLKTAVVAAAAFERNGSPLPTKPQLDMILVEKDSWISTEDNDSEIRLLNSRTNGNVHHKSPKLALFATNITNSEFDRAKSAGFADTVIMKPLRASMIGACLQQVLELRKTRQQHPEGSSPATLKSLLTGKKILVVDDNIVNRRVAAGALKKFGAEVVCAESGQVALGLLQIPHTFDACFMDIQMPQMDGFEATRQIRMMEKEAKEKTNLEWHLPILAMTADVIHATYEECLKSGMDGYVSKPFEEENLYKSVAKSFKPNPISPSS
Experimental: (§1) The transformed cell TM182-CRE1 and the transformed cell TM182-p415CYC1 obtained in Example 6 were each inoculated in 10 ml of a DOLU+Gal medium, and preincubated at 30° C. for 18 hours to obtain a preincubation liquid for each of the transformed cells. The preincubation liquid was diluted with a DOLU+Glu medium for the transformed cell TM182-CRE1 or with a DOLU+Gal medium for the transformed cell TM182-p415CYC1 until OD600=0.1 was reached, to obtain a preincubation dilution for each of the transformed cells.
(§2) To each well of a 96-well plate was added 1 μl of a 200 ppm solution of a test substance in dimethyl sulfoxide (DMSO) to prepare an Assay plate. At the same time, as controls, only 1 μl of DMSO was added to a part of wells. An assay plate for the transformed cell TM182-CRE1 and an assay plate for the transformed cell TM182-p415CYC1 were prepared.
(§3) A 10,000 ppm solution of trans-zeatin (cytokinin) in DMSO was 50-fold diluted with a DOLU+Gul medium to 200 ppm. The 200 ppm trans-zeatin solution was added in an amount of 3/1,000 volume to each of the above-described preincubation dilution to prepare each preincubation dilution containing trans-zeatin at 0.6 ppm. The 0.6 ppm preincubation dilution was added in an amount of 100 μl to each wells of the assay plate for each transformed cell. The plates were incubated at 30° C. for 24 hours. Then, turbidity (OD 600) of each well was measured by using a plate reader. The activity of the test substance for inhibiting intracellular signaling from a plant-derived cytokinin receptor of a cell was tested by comparing the measured turbidity with the turbidity of the control well.
(§4) (Relative growth rate in test section to control section) [%]=[(Turbidity in test section)−(Turbidity in blank)]/[(Turbidity in control section)−(Turbidity in blank)]×100 (Activity of inhibiting intracellular signaling from plant-derived cytokinin receptor of cell) [%]=100−(Relative growth rate in test section to control section)
(§5) In all cases, the existing concentration of trans-zeatin was adjusted to 0.6 ppm and the existing concentration of a chemical substance was adjusted to 2 ppm.
(§6) In all cases, the existing concentration of trans-zeatin was adjusted to 0.6 ppm and the existing concentration of a chemical substance was adjusted to 2 […].

[2] = test system: transformed cell TM182-p415CYC1; assay: Control growth test with transformed yeast cell TM182-p415CYC1 (toxicity to yeast); assay type: cell-based; conditions: trans-zeatin 0.6 ppm; chemical substance 2 ppm; 30° C., 24 hours; turbidity OD 600
Experimental: as §1, §2, §3, §4, §5, §6

[3] = test system: Arabidopsis thaliana; assay: Root growth-promoting activity test (Example 9); assay type: in vivo; conditions: main root length vs control section, 22° C., 10 days
Experimental: Enshi standard medium having the following composition (see Table 10) was prepared. To cluster tubes was dispensed each 4 μl of a solution of a chemical substance in DMSO to a final concentration of 0.001 ppm to 10 ppm, and then, was dispensed each 600 μl of the sterilized Enshi standard medium. Then the resulting solution was well mixed. In each of the cluster tubes, 10-20 seeds of Arabidopsis thaliana were sown, and cultured at 22° C. for 10 days in the light. Then, the length of main roots (average main roots) generated from the seeds of Arabidopsis thaliana was measured. An average of eight repeats was determined, and a root growth rate was determined according to the following equation.
Root growth rate (%)=(Average main root length in chemical substance-treated section)/(Average main root length in control section)×100

[4] = test final concentration 0.156 ppm (concentration with highest root growth rate)
[5] = test final concentration 10 ppm (concentration with highest root growth rate)
[6] = test final concentration 2.5 ppm (concentration with highest root growth rate)
[7] = test final concentration 5 ppm (concentration with highest root growth rate)

Compound | Relative growth rate (%) in test section of test substance to control section, Transformed cell TM182-CRE1 [1] [%] | Activity (%) of test substance for inhibiting intracellular signaling from plant-derived cytokinin receptor of cell [1] [%] | Relative growth rate (%) in test section of test substance to control section, Transformed cell TM182-p415CYC1 [2] [%] | other results
OCCCNc1nc(-c2ccccc2)c2cc(Br)ccc2n1 [Ic4-2] | 0.9 | 99.1 | 109.3 | –
Clc1cccc(-c2nc(Cl)nc3ccc(Cl)cc23)c1 [Ia1-14] | – | – | – | Root growth-promoting activity (root growth rate) [3, 4]: 129.3%
O=[N+]([O-])c1ccc2nc(Cl)nc(-c3ccccc3)c2c1 [Ia1-7] | 1.2 | 98.8 | 78.8 | –
COCCN(C)c1nc(-c2ccccc2)c2cc(Cl)ccc2n1 [Ic3-9] | 1.5 | 98.5 | 122.0 | –
C#CCNc1nc(-c2ccccc2)c2cc(Cl)ccc2n1 [Ic3-30] | 2.2 | 97.8 | 108.9 | –
Nc1nc(-c2ccccc2)c2cc(Cl)ccc2n1 [Ic3-19] | 2.4 | 97.6 | 102.7 | Root growth-promoting activity (root growth rate) ([3]; test final concentration 1.25 ppm (concentration with highest root growth rate)): 155.6%
Fc1ccc2nc(Cl)nc(-c3ccccc3)c2c1 [Ia1-2] | – | – | – | Root growth-promoting activity (root growth rate) [3, 5]: 139.7%
Cc1ccc2nc(NCCCO)nc(-c3ccccc3)c2c1 [Ic5-5] | 7.2 | 92.8 | 126.3 | Root growth-promoting activity (root growth rate) [3, 6]: 157.8%
CN(C)CCNc1nc(-c2ccccc2)c2cc(Cl)ccc2n1 [Ic3-21] | 5.0 | 95.0 | 121.6 | Root growth-promoting activity (root growth rate) [3, 6]: 131.7%
N#CCNc1nc(-c2ccccc2)c2cc(Cl)ccc2n1 [Ic3-26] | 5.3 | 94.7 | 110.7 | Root growth-promoting activity (root growth rate) [3, 7]: 136.4%
COc1ccc2nc(NCCCO)nc(-c3ccccc3)c2c1 [Ic8-1] | – | – | – | Root growth-promoting activity (root growth rate) [3, 5]: 162.1%
NNc1nc(-c2ccccc2)c2cc(Cl)ccc2n1 [Ic3-20] | 5.0 | 95.0 | 86.5 | Root growth-promoting activity (root growth rate) [3, 5]: 137.8%
OCCCNc1nc(-c2ccccc2)c2cc(F)ccc2n1 [Ic2-1] | 2.8 | 97.2 | 124.6 | Root growth-promoting activity (root growth rate) [3, 6]: 127.4%
CNc1nc(-c2ccccc2)c2cc(Cl)ccc2n1 [Ic3-23] | 4.1 | 95.9 | 108.1 | Root growth-promoting activity (root growth rate) [3, 5]: 150.0%
FC(F)(F)c1ccc2nc(Cl)nc(-c3ccccc3)c2c1 [Ia1-6] | – | – | – | Root growth-promoting activity (root growth rate) ([3]; test final concentration 0.625 ppm (concentration with highest root growth rate)): 126.9%
NC(=O)CNc1nc(-c2ccccc2)c2cc(Cl)ccc2n1 [Ic3-31] | – | – | – | Root growth-promoting activity (root growth rate) [3, 5]: 142.2%
NCCCCNc1nc(-c2ccccc2)c2cc(Cl)ccc2n1 [Ic3-22] | 4.9 | 95.1 | 110.6 | Root growth-promoting activity (root growth rate) [3, 4]: 129.3%
NCCSc1nc(-c2ccccc2)c2cc(Cl)ccc2n1 [Ie3-2] | – | – | – | Root growth-promoting activity (root growth rate) [3, 5]: 147.6%
NCCOc1nc(-c2ccccc2)c2cc(Cl)ccc2n1 [Id3-1, 2-(2-aminoethoxy)-6-chloro-4-phenylquinazotine] | 2.1 | 97.9 | 112.5 | –
N#CCCNc1nc(-c2ccccc2)c2cc(Cl)ccc2n1 [Ic3-34] | 0.2 | 99.8 | 118.5 | –
OCCNc1nc(-c2ccccc2)c2cc(Br)ccc2n1 [Ic4-1] | 4.6 | 95.4 | 95.0 | –
Clc1nc(-c2ccccc2)c2c(Cl)cccc2n1 [Ia1-1] | – | – | – | Root growth-promoting activity (root growth rate) [3, 7]: 133.3%
N=C(N)Nc1nc(-c2ccccc2)c2cc(Cl)ccc2n1 [Ic3-36] | – | – | – | Root growth-promoting activity (root growth rate) [3, 6]: 123.1%
O=Cc1nc(-c2ccccc2Cl)c2cc(Br)ccc2n1 [Ib4-1] | 8.7 | 91.3 | 110.9 | –
CN(C)c1nc(-c2ccccc2)c2cc(Cl)ccc2n1 [Ic3-25] | 6.0 | 94.0 | 122.0 | Root growth-promoting activity (root growth rate) [3, 5]: 140.0%
CCOCCNc1nc(-c2ccccc2)c2cc(Cl)ccc2n1 [Ic3-45] | 0.8 | 99.2 | 98.7 | –
